Measurements: US20080085886A1, “Aza-benzofuranyl compounds and methods of use” (GENENTECH, INC., priority 2006, published 2008)

tested on: cellular p-ERK in HCT116 human colorectal carcinoma / A375 human malignant melanoma cell lines; experiment: Phospho-ERK cell-based assay (ELISA), Example 4; conditions: in either one of the cell lines (HCT116, A375), 2 h or 24 h exposure
Description: Example 4 Phospho-ERK Cell-Based Assay
Compounds are tested in a cell-based phospho-ERK ELISA using the following cell lines:
HCT116 human colorectal carcinoma (ATCC)
A375 human malignant melanoma (ATCC)
Both cell lines are maintained in DMEM/F12 (1:1) media (Gibco) supplemented with 10% FCS at 37° C. in a 5% CO2 humidified incubator.
Cells are seeded in 96-well plates at 2,000 cells/well and after 24 h they are exposed to different concentrations of compounds in 0.83% DMSO. Cells are grown for a further 2 h or 24 h, fixed with formaldehyde (2% final) and permeabilised with methanol. Following blocking with TBST-3% BSA, fixed cells are incubated with primary antibody (anti-phospho ERK from rabbit) over-night at 4° C. Cells are incubated with Propidium Iodide (DNA fluorescent dye) and detection of cellular p-ERK is performed using an anti-rabbit secondary antibody conjugated to the fluorescent Alexa Fluor 488 dye (Molecular probes). The fluorescence is analysed using the Acumen Explorer (TTP Labtech), a laser-scanning microplate cytometer, and the Alexa Fluor 488 signal is normalised to the PI signal (proportional to cell number).
The EC50 is defined as the concentration at which a given compound achieves a signal half way between the baseline and the maximum response. EC50 values are calculated using the XLfit software package (version 2.0.5).

Compound | EC50
CN(OCCO)C(=O)c1oc2ccncc2c1Nc1ccc(I)cc1F [Example 23, 3-(2-Fluoro-4-iodo-phenylamino)-furo[3,2-c]pyridine-2-carboxylic acid (2-hydroxy-ethoxyl)-methyl-amide] | < 10 µM
O=C(NOCCO)c1oc2ccncc2c1Nc1ccc(Br)cc1Cl [Example 26, 3-(4-Bromo-2-chloro-phenylamino)-furo[3,2-c]pyridine-2-carboxylic acid (2-hydroxy-ethoxy)-amide] | < 10 µM
CONC(=O)c1oc2ccncc2c1Nc1ccc(I)cc1F [Example 29, 3-(2-Fluoro-4-iodo-phenylamino)-furo[3,2-c]pyridine-2-carboxylic acid methoxy-amide] | < 10 µM
CC(C)CONC(=O)c1oc2ccncc2c1Nc1ccc(I)cc1F [Example 42, (2-Fluoro-4-iodo-phenylamino)-N-isobutoxyfuro[3,2-c]pyridine-2-carboxamide] | < 10 µM
CC(C)ONC(=O)c1oc2ccncc2c1Nc1ccc(I)cc1F [Example 43, (2-Fluoro-4-iodo-phenylamino)-N-isopropoxyfuro[3,2-c]pyridine-2-carboxamide] | < 10 µM
O=C(NOCc1ccccc1)c1oc2ccncc2c1Nc1ccc(I)cc1F [Example 44, (2-Fluoro-4-iodo-phenylamino)-N-benzyloxyfuro[3,2-c]pyridine-2-carboxamide] | < 10 µM
O=C(NOCCCO)c1oc2ccncc2c1Nc1ccc(I)cc1F [Example 45, (2-Fluoro-4-iodo-phenyl amino)-N-(3-hydroxypropoxy)furo[3,2-c]pyridine-2-carboxamide] | < 10 µM
O=C(NCCCONC(=O)c1oc2ccncc2c1Nc1ccc(I)cc1F)c1ccccn1 [Example 46] | < 10 µM
O=C(NCCCONC(=O)c1oc2ccncc2c1Nc1ccc(I)cc1F)c1cccnc1 [Example 47] | < 10 µM
O=C(NCCCONC(=O)c1oc2ccncc2c1Nc1ccc(I)cc1F)c1ccncc1 [Example 48, (2-Fluoro-4-iodo-phenyl amino)-N-[3-(isonicotinamide)propoxy] furo[3,2-c]pyridine-2-carboxamide] | < 10 µM
CCONC(=O)c1oc2ccncc2c1Nc1ccc(I)cc1F [Example 50, (2-Fluoro-4-iodo-phenyl amino)-N-ethoxyfuro[3,2-c]pyridine-2-carboxamide] | < 10 µM
CC(O)CONC(=O)c1oc2ccncc2c1Nc1ccc(I)cc1F (stereo not drawn) [Example 55, 3-(2-Fluoro-4-iodo-phenylamino)-furo[3,2-c]pyridine-2-carboxylic acid (2-hydroxy-propoxy)-amide] | < 10 µM
O=C(c1oc2ccncc2c1Nc1ccc(I)cc1F)N1CC[C@@H](O)C1 [Example 59, (3-(2-fluoro-4-iodophenyl amino)furo[3,2-c]pyridin-2-yl)((R)-3-hydroxypyrrolidin-1-yl)methanone] | < 10 µM
O=C(c1oc2ccncc2c1Nc1ccc(I)cc1F)N1C[C@H](O)[C@@H](O)C1 [Example 60, (3-(2-fluoro-4-iodophenyl amino)furo[3,2-c]pyridin-2-yl)((3S,4S)-3,4-dihydroxypyrrolidin-1-yl)methanone] | < 10 µM
O=C(NCCCO)c1oc2ccncc2c1Nc1ccc(I)cc1F [Example 61, 3-(2-fluoro-4-iodophenylamino)-N-(3-hydroxypropyl)furo[3,2-c]pyridine-2-carboxamide] | < 10 µM
O=C(NC(CO)CO)c1oc2ccncc2c1Nc1ccc(I)cc1F [Example 68, 3-(2-fluoro-4-iodophenylamino)-N-(1,3-dihydroxypropan-2-yl)furo[3,2-c]pyridine-2-carboxamide] | < 10 µM
O=C(c1oc2ccncc2c1Nc1ccc(I)cc1F)N1CC[C@H](O)C1 [Example 70, (3-(2-fluoro-4-iodophenylamino)furo[3,2-c]pyridin-2-yl)((S)-3-hydroxypyrrolidin-1-yl)methanone] | < 10 µM
O=C(c1oc2ccncc2c1Nc1ccc(I)cc1F)N1C[C@@H](O)[C@@H](O)C1 [Example 73, (3-(2-fluoro-4-iodophenylamino)furo[3,2-c]pyridin-2-yl)((3S,4R)-3,4-dihydroxypyrrolidin-1-yl)methanone] | < 10 µM
N[C@@H]1CCN(C(=O)c2oc3ccncc3c2Nc2ccc(I)cc2F)C1 [Example 74, (3-(2-fluoro-4-iodophenylamino)furo[3,2-c]pyridin-2-yl)((R)-3-aminopyrrolidin-1-yl)methanone] | < 10 µM
C[C@@H](CO)NC(=O)c1oc2ccncc2c1Nc1ccc(I)cc1F [Example 76, 3-(2-fluoro-4-iodophenylamino)-N-((S)-1-hydroxypropan-2-yl)furo[3,2-c]pyridine-2-carboxamide] | < 10 µM

Compound | EC50
O=C(c1oc2ccncc2c1Nc1ccc(I)cc1F)N1CCC[C@H]1CO [Example 79, (3-(2-fluoro-4-iodophenylamino)furo[3,2-c]pyridin-2-yl)((S)-2-(hydroxymethyl)pyrrolidin-1-yl)methanone] | < 10 µM
CN(CCO)C(=O)c1oc2ccncc2c1Nc1ccc(I)cc1F [Example 81, 3-(2-fluoro-4-iodophenylamino)-N-(2-hydroxyethyl)-N-methylfuro[3,2-c]pyridine-2-carboxamide] | < 10 µM
O=C(NCCO)c1oc2ccncc2c1Nc1ccc(I)cc1F [Example 82, 3-(2-fluoro-4-iodophenylamino)-N-(2-hydroxyethyl)furo[3,2-c]pyridine-2-carboxamide] | < 10 µM
CN(C)C(=O)c1oc2ccncc2c1Nc1ccc(I)cc1F [Example 83, 3-(2-fluoro-4-iodophenylamino)-N,N-dimethylfuro[3,2-c]pyridine-2-carboxamide] | < 10 µM
O=C(NCC(O)CO)c1oc2ccncc2c1Nc1ccc(I)cc1F (stereo not drawn) [Example 84, 3-(2-fluoro-4-iodophenylamino)-N-(2,3-dihydroxypropyl)furo[3,2-c]pyridine-2-carboxamide] | < 10 µM
O=C(c1oc2ccncc2c1Nc1ccc(I)cc1F)N1CCC[C@@H]1CO [Example 87, (3-(2-fluoro-4-iodophenylamino)furo[3,2-c]pyridin-2-yl)((R)-2-(hydroxylmethyl)pyrrolidin-1-yl)methanone] | < 10 µM
CNC(=O)c1oc2ccncc2c1Nc1ccc(I)cc1F [Example 91, 3-(2-fluoro-4-iodophenylamino)-N-methylfuro[3,2-c]pyridine-2-carboxamide] | < 10 µM
O=C(NCC[C@H](O)CO)c1oc2ccncc2c1Nc1ccc(I)cc1F [Example 95, 3-(2-fluoro-4-iodophenylamino)-N-((S)-3,4-dihydroxybutyl)furo[3,2-c]pyridine-2-carboxamide] | < 10 µM
CC(C)(C)ONC(=O)c1oc2ccncc2c1Nc1ccc(I)cc1F [Example 99, (2-Fluoro-4-iodo-phenylamino)-N-tert-butoxyfuro[3,2-c]pyridine-2-carboxamide] | < 10 µM
O=C(NOc1ccccc1)c1oc2ccncc2c1Nc1ccc(I)cc1F [Example 111, 3-(2-Fluoro-4-iodo-phenylamino)-N-phenyloxyfuro[3,2-c]pyridine-2-carboxamide] | < 10 µM
CC(C)(CO)ONC(=O)c1oc2ccncc2c1Nc1ccc(I)cc1F [Example 113, N-(1-hydroxy-2-methylpropan-2-yloxy)-3-(2-Fluoro-4-iodo-phenylamino)furo[3,2-c]pyridine-2-carboxamide] | < 10 µM
C[C@@H](O)CONC(=O)c1oc2ccncc2c1Nc1ccc(I)cc1F [Example 117, 3-(2-Fluoro-4-iodo-phenylamino)-furo[3,2-c]pyridine-2-carboxylic acid ((R)-2-hydroxy-propoxy)-amide] | < 10 µM
C[C@H](O)CONC(=O)c1oc2ccncc2c1Nc1ccc(I)cc1F [Example 118, 3-(2-Fluoro-4-iodo-phenylamino)-furo[3,2-c]pyridine-2-carboxylic acid ((S)-2-hydroxy-propoxy)-amide] | < 10 µM
CC1(O)CCN(C(=O)c2oc3ccncc3c2Nc2ccc(I)cc2F)C1 (stereo not drawn) [Example 120, (3-(2-fluoro-4-iodophenylamino)furo[3,2-c]pyridine-2-yl)(3-hydroxy-3-methylpyrrolidin-1-yl)methanone] | < 10 µM
O=C(c1oc2ccncc2c1Nc1ccc(I)cc1F)N1CC(O)C1 [Example 122, (3-(2-fluoro-4-iodophenylamino)furo[3,2-c]pyridin-2-yl)(3-hydroxyazetidin-1-yl)methanone] | < 10 µM
O=C(c1oc2ccncc2c1Nc1ccc(I)cc1F)N1CC[C@@H](O)[C@H]1CO [Example 123] | < 10 µM
O=C(c1oc2ccncc2c1Nc1ccc(I)cc1F)N1C[C@@H](O)[C@H](O)[C@H]1CO [Example 124, (3-(2-fluoro-4-iodophenylamino)furo[3,2-c]pyridin-2-yl)((2R,3R,4R)-3,4-dihydroxy-2-(hydroxymethyl)pyrrolidin-1-yl)methanone] | < 10 µM
O=C(c1oc2ccncc2c1Nc1ccc(I)cc1F)N1C[C@H](O)C[C@@H]1CO [Example 126, (3-(2-fluoro-4-iodophenylamino)furo[3,2-c]pyridin-2-yl)((2R,4R)-4-hydroxy-2-(hydroxymethyl)pyrrolidin-1-yl)methanone] | < 10 µM
O=C(c1oc2ccncc2c1Nc1ccc(I)cc1F)N1C[C@H](O)C[C@H]1CO [Example 127, (3-(2-fluoro-4-iodophenylamino)furo[3,2-c]pyridin-2-yl)((2S,4R)-4-hydroxy-2-(hydroxymethyl)pyrrolidin-1-yl)methanone] | < 10 µM
